Legend:
[1] = tested on: individuals who smoked more than 15 cigarettes a day and who showed symptoms of nicotine dependence; test: double-blind placebo-controlled study of withdrawal from tobacco in smokers; format: in vivo, human; conditions: 40 mg per day for 10 weeks, including 2 weeks before start of withdrawal; in particular during the last 4 weeks of treatment; confirmed by exhaled carbon monoxide and plasma cotinine
Description: The patients received 40 mg of compound A per day for 10 weeks, including 2 weeks before the start of the period of withdrawal from tobacco. […] The withdrawal from tobacco was confirmed by weekly measurement of the levels of carbon monoxide exhaled and of cotinine in the plasma.

[2] = tested on: rats which have learnt to self-administer nicotine intravenously; test: self-administration of nicotine in rats (model predicting effects on nicotine dependence); format: in vivo; conditions: intravenous nicotine self-administration
Excerpt: The effects of compound A were studied in rats on a model which predicts the effects on nicotine dependence: the self-administration of nicotine according to W.T. Corrigal and al. Psychopharmacology, 1989, 99, 473-478.

Structure (SMILES): Cc1c(C(=O)NN2CCCCC2)nn(-c2ccc(Cl)cc2Cl)c1-c1ccc(Cl)cc1 [compound A, N-piperidino-5-(4-chloro-phenyl)-1-(2,4-dichlorophenyl)-4-methylpyrazole-3-carboxamide]
- level of withdrawal from tobacco versus placebo group [1]: greater level of withdrawal
- number of nicotine injections ([2]; compound A at a dose of 0.3 mg/kg): reduces, in a statistically significant manner
- number of nicotine injections ([2]; compound A at a dose of 1 mg/kg): reduces, in a statistically significant manner

Reference: patent publication US20050187253A1, “Medicinal kit to quit tobacco consumption comprising central cannabinoid receptor antagonist” (Sanofi-Aventis, priority 2000, published 2005)
